Reference: PubChem BioAssay AID330 (DTP/NCI, 2004)
Values joined by “and” are separate entries in the source; they are usually repeats but may differ in a detail not shown here. Equal values may be shown once. Inconclusive results and toxic doses are left out.

System: P388 leukemia ip, CD2F1 mice, survival T/C
Test: NCI In Vivo Anticancer Drug Screen. Data for tumor model P388 Leukemia (intraperitoneal) in CD2F1 (CDF1) mice
Conditions: endpoint: median survival time, higher = longer survival
Summary of the method: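 Mice carrying the transplanted tumor received test compound or vehicle. Survival was recorded in each group, and the value is the treated-group measurement divided by that of the vehicle-treated control group.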

[1] = dose: 50.0 mg/kg/injection, schedule: Q01DX009 (ip), vehicle: Klucel (hydroxypropylcellulose) (HPC)
[2] = dose: 100.0 mg/kg/injection, schedule: Q01DX009 (ip), vehicle: Klucel (hydroxypropylcellulose) (HPC)
[3] = dose: 50.0 mg/kg/injection, schedule: Q01DX009 (ip), vehicle: saline with Tween-80
[4] = dose: 100.0 mg/kg/injection, schedule: Q01DX009 (ip), vehicle: saline with Tween-80
[5] = dose: 200.0 mg/kg/injection, schedule: Q01DX009 (ip), vehicle: saline with Tween-80
[6] = dose: 25.0 mg/kg/injection, schedule: Q01DX005 (ip), vehicle: saline
[7] = dose: 50.0 mg/kg/injection, schedule: Q01DX005 (ip), vehicle: saline

With O=C(N/N=C/c1cc(Cl)cc(Cl)c1[O-])c1ccccc1.O=C(N/N=C/c1cc(Cl)cc(Cl)c1[O-])c1ccccc1.[Ni+2] the T/C (dose: 100.0 mg/kg/injection, schedule: Q01DX001 (ip), vehicle: saline with Tween-80) was 93 % of control, the T/C (dose: 200.0 mg/kg/injection, schedule: Q01DX001 (ip), vehicle: saline with Tween-80) was 92 % of control and the T/C (dose: 400.0 mg/kg/injection, schedule: Q01DX001 (ip), vehicle: saline with Tween-80) was 107 % of control.
For N#CC12CCCCC1CCC1(C2)OCCO1 (configuration not stated), the T/C [1] was 111 % of control, the T/C [2] was 100 % of control and the T/C (dose: 200.0 mg/kg/injection, schedule: Q01DX009 (ip), vehicle: Klucel (hydroxypropylcellulose) (HPC)) was 108 % of control.
In the case of COc1cc(C(=O)N/N=C/c2cccc([N+](=O)[O-])c2)cc(OC)c1OC, the T/C [3] is reported as 102 % of control and 115 % of control, the T/C [4] is reported as 123 % of control and the T/C [5] is reported as 163 % of control. The T/C (dose: 400.0 mg/kg/injection, schedule: Q01DX009 (ip), vehicle: saline with Tween-80) was 168 % of control.
In the case of CC(C)CC(C)NC(C)CC(C)C (configuration not stated), the T/C (dose: 12.5 mg/kg/injection, schedule: Q01DX005 (ip), vehicle: saline) is reported as 90 % of control, the T/C [6] is reported as 97 % of control and the T/C [7] is reported as 102 % of control and 92 % of control.
In the case of c1cc(Nc2ccc3c(c2)OCO3)c2cc(C3CCCCC3)ccc2n1, the T/C (dose: 60.0 mg/kg/injection, schedule: Q01DX005 (ip), vehicle: saline with Tween-80) is reported as 97 % of control, the T/C (dose: 120.0 mg/kg/injection, schedule: Q01DX005 (ip), vehicle: saline with Tween-80) is reported as 98 % of control and the T/C (dose: 240.0 mg/kg/injection, schedule: Q01DX005 (ip), vehicle: saline with Tween-80) is reported as 100 % of control.
Cc1cccc(=O)[n-]1.Cc1cccc(=O)[n-]1.Cc1cccc(=O)[n-]1.Cc1cccc(=O)[n-]1.[Cr+2].[Cr+2] was tested, and the T/C (dose: 100.0 mg/kg/injection, schedule: Q04DX002 (ip), vehicle: Klucel (hydroxypropylcellulose) (HPC)) was 90 % of control, the T/C (dose: 200.0 mg/kg/injection, schedule: Q04DX002 (ip), vehicle: Klucel (hydroxypropylcellulose) (HPC)) was 110 % of control and the T/C (dose: 400.0 mg/kg/injection, schedule: Q04DX002 (ip), vehicle: Klucel (hydroxypropylcellulose) (HPC)) was 120 % of control.
c1ccc(-c2nc3ccccc3nc2-c2ccc(-c3nc4ccccc4nc3-c3ccccc3)cc2)cc1 was tested, and the T/C (dose: 6.25 mg/kg/injection, schedule: Q01DX009 (ip), vehicle: saline with Tween-80) was 112 % of control and the T/C (dose: 12.5 mg/kg/injection, schedule: Q01DX009 (ip), vehicle: saline with Tween-80) was 90 % of control.
With O=C1CCC2CC1CCC2=O the T/C (dose: 12.5 mg/kg/injection, schedule: Q01DX009 (ip), vehicle: Klucel (hydroxypropylcellulose) (HPC)) was 111 % of control, the T/C (dose: 25.0 mg/kg/injection, schedule: Q01DX009 (ip), vehicle: Klucel (hydroxypropylcellulose) (HPC)) was 102 % of control and the T/C [1] was 109 % of control. The T/C [2] was 111 % of control.
With OCC1OC(n2ncc3nccnc32)C(O)C1O (configuration not stated) the T/C (dose: 32.0 mg/kg/injection, schedule: Q01DX002 (ip), vehicle: saline with Tween-80) was 98 % of control and 114 % of control, the T/C (dose: 64.0 mg/kg/injection, schedule: Q01DX002 (ip), vehicle: saline with Tween-80) was 98 % of control and 109 % of control and the T/C (dose: 128.0 mg/kg/injection, schedule: Q01DX002 (ip), vehicle: saline with Tween-80) was 112 % of control and 114 % of control.
In the case of CNC1C(O)C2Oc3c(cc(O)c4c3C(=O)c3cc5c(c(O)c3C4=O)C(OC3OC(C)C(OC)C(C)(OC)C3OC)CC(C)(O)C5C(=O)OC)C(C)(O2)C1O (configuration not stated), the T/C (dose: 3.12 mg/kg/injection, schedule: Q04DX003 (ip), vehicle: other) is reported as 99 % of control, the T/C (dose: 6.25 mg/kg/injection, schedule: Q04DX003 (ip), vehicle: other) is reported as 115 % of control and the T/C (dose: 12.5 mg/kg/injection, schedule: Q04DX003 (ip), vehicle: other) is reported as 150 % of control. For the same compound, the T/C (dose: 25.0 mg/kg/injection, schedule: Q04DX003 (ip), vehicle: other) was 160 % of control.
In the case of COc1cc(/C=C/C(=O)c2ccc(OCc3ccccc3)cc2OC(C)=O)c(OC)c(OC)c1OC, the T/C (dose: 100.0 mg/kg/injection, schedule: Q01DX001 (ip), vehicle: Klucel (hydroxypropylcellulose) (HPC)) is reported as 96 % of control and the T/C (dose: 200.0 mg/kg/injection, schedule: Q01DX001 (ip), vehicle: Klucel (hydroxypropylcellulose) (HPC)) is reported as 94 % of control.
For O=c1c([N+](=O)[O-])c[nH]c2ccccc12, the T/C (dose: 25.0 mg/kg/injection, schedule: Q01DX009 (ip), vehicle: distilled water + Tween-80) was 92 % of control, the T/C (dose: 50.0 mg/kg/injection, schedule: Q01DX009 (ip), vehicle: distilled water + Tween-80) was 87 % of control and the T/C (dose: 100.0 mg/kg/injection, schedule: Q01DX009 (ip), vehicle: distilled water + Tween-80) was 108 % of control. For the same compound, the T/C (dose: 200.0 mg/kg/injection, schedule: Q01DX009 (ip), vehicle: distilled water + Tween-80) was 93 % of control.
In the case of CCN(CC)CCCNC(=O)Cc1ccc2c(c1)C(=O)c1ccccc1C2=O, the T/C (dose: 25.0 mg/kg/injection, schedule: Q01DX005 (ip), vehicle: water) is reported as 106 % of control, the T/C (dose: 50.0 mg/kg/injection, schedule: Q01DX005 (ip), vehicle: water) is reported as 108 % of control and the T/C (dose: 100.0 mg/kg/injection, schedule: Q04DX002 (ip), vehicle: water) is reported as 97 % of control.
COC(=O)CC1(C(=O)OC)c2sc(C(C)C)cc2N2CCCC21 (configuration not stated) was tested, and the T/C (dose: 10.0 mg/kg/injection, schedule: Q01DX009 (ip), vehicle: Klucel (hydroxypropylcellulose) (HPC)) was 97 % of control, the T/C (dose: 20.0 mg/kg/injection, schedule: Q01DX009 (ip), vehicle: Klucel (hydroxypropylcellulose) (HPC)) was 93 % of control and the T/C (dose: 40.0 mg/kg/injection, schedule: Q01DX009 (ip), vehicle: Klucel (hydroxypropylcellulose) (HPC)) was 93 % of control. For the same compound, the T/C (dose: 80.0 mg/kg/injection, schedule: Q01DX009 (ip), vehicle: Klucel (hydroxypropylcellulose) (HPC)) was 91 % of control.
In the case of CCCCCC(CN(C)C)C(=O)CC(SCC)c1ccc(Cl)c(Cl)c1 (configuration not stated), the T/C (dose: 6.25 mg/kg/injection, schedule: Q01DX009 (ip), vehicle: water) is reported as 102 % of control and 113 % of control, the T/C (dose: 12.5 mg/kg/injection, schedule: Q01DX009 (ip), vehicle: water) is reported as 107 % of control and 109 % of control and 111 % of control and the T/C (dose: 25.0 mg/kg/injection, schedule: Q01DX009 (ip), vehicle: water) is reported as 107 % of control and 120 % of control and 95 % of control. The T/C (dose: 50.0 mg/kg/injection, schedule: Q01DX009 (ip), vehicle: water) was 101 % of control and 112 % of control and 115 % of control and the T/C (dose: 100.0 mg/kg/injection, schedule: Q01DX009 (ip), vehicle: water) was 108 % of control.
For c1ccc2c(c1)CN1Cc3ccccc3C2C1, the T/C [3] was 99 % of control, the T/C [4] was 93 % of control and the T/C [5] was 91 % of control.
For O/N=C1\CCC2CCCCC12 (configuration not stated), the T/C (dose: 50.0 mg/kg/injection, schedule: Q01DX005 (ip), vehicle: Klucel (hydroxypropylcellulose) (HPC)) was 98 % of control, the T/C (dose: 100.0 mg/kg/injection, schedule: Q01DX005 (ip), vehicle: Klucel (hydroxypropylcellulose) (HPC)) was 102 % of control and the T/C (dose: 200.0 mg/kg/injection, schedule: Q01DX005 (ip), vehicle: Klucel (hydroxypropylcellulose) (HPC)) was 107 % of control.
In the case of O=C1C2C3C=CC(C2C(=O)N1COP(=O)(O)O)C1C2C(=O)N(COP(=O)(O)O)C(=O)C2C31 (configuration not stated), the T/C (dose: 20.0 mg/kg/injection, schedule: Q01DX009 (ip), vehicle: water) is reported as 112 % of control, the T/C (dose: 40.0 mg/kg/injection, schedule: Q01DX009 (ip), vehicle: water) is reported as 112 % of control and the T/C (dose: 80.0 mg/kg/injection, schedule: Q01DX009 (ip), vehicle: water) is reported as 112 % of control and 90 % of control. The T/C (dose: 160.0 mg/kg/injection, schedule: Q01DX009 (ip), vehicle: water) was 165 % of control and the T/C (dose: 240.0 mg/kg/injection, schedule: Q01DX009 (ip), vehicle: water) was 152 % of control.
c1ccc2c(c1)CCc1c-2n[nH]c1-c1[nH]nc2c1CCc1ccccc1-2 was tested, and the T/C (dose: 60.0 mg/kg/injection, schedule: Q01DX005 (ip), vehicle: Klucel (hydroxypropylcellulose) (HPC)) was 99 % of control, the T/C (dose: 120.0 mg/kg/injection, schedule: Q01DX005 (ip), vehicle: Klucel (hydroxypropylcellulose) (HPC)) was 89 % of control and the T/C (dose: 240.0 mg/kg/injection, schedule: Q01DX005 (ip), vehicle: Klucel (hydroxypropylcellulose) (HPC)) was 88 % of control.
In the case of COc1cc(NC(C)CCCN)c2ncccc2c1 (configuration not stated), the T/C (dose: 12.5 mg/kg/injection, schedule: Q01DX009 (ip), vehicle: saline sonified) is reported as 118 % of control, the T/C (dose: 25.0 mg/kg/injection, schedule: Q01DX009 (ip), vehicle: saline sonified) is reported as 109 % of control and the T/C (dose: 50.0 mg/kg/injection, schedule: Q01DX009 (ip), vehicle: saline sonified) is reported as 90 % of control.
For N#Cc1c(=O)n(CCO)nc2c3ccccc3c3ccccc3c12, the T/C (dose: 100.0 mg/kg/injection, schedule: Q04DX002 (ip), vehicle: saline with Tween-80) was 97 % of control and the T/C (dose: 200.0 mg/kg/injection, schedule: Q04DX002 (ip), vehicle: saline with Tween-80) was 88 % of control.
For CC(C)(C)N1CS[C@@H]2CCCC[C@H]21, the T/C [6] was 104 % of control, the T/C [7] was 92 % of control and the T/C (dose: 100.0 mg/kg/injection, schedule: Q01DX005 (ip), vehicle: saline) was 111 % of control.
